This is an account of results in patent EP0189853A2, “1,6-Naphthyridin-2(1H)-ones having cardiotonic activity and preparation” (STERLING DRUG INC., priority 1985, dated 1986).

For one assay, the system named is papillary muscle. The assay is described as follows: isolated guinea pig atria and papillary muscle procedure: papillary muscle force. Type of assay: cell-based. The conditions noted are these: Cavia porcellus, papillary muscle force, read-out: % Change from Control PMF. From the text: (§1) Detailed descriptions of these test procedures appear in U.S. Patent No. 4,072,746, issued February 7, […].
(§2) Cardiotonic activity in said isolated cat or guinea pig atria and papillary muscle procedure, is indicated by a significant increase, that is, greater than 25% (cat) or 30% (g.pig) in papillary muscle force and a significant increase, that is, greater than 25% (cat) or 30% (g.pig) in right atrial force, with a lower percentage increase (about one-half or less than the percentage increase in right atrial force or papillary muscle force) in right atrial rate. Because of the lower control active tensions of guinea pig tissues, the percent change from control values of both rate and force responses is elevated slightly, i.e., 5%. Thus, whereas cardiotonic activity is ascertained with a papillary muscle force or right atrial force increase of 26% and greater in the cat test, corresponding activity in the guinea pig test is designated with a papillary muscle force (PMr) or right atrial force (RAF) increase of 31% or greater. Representative examples of the compounds of Formulas I and II were tested by said guinea pig atria and papillary muscle procedure with the following results: […]

A further assay concerns guinea pig atria. The assay is described as follows: isolated guinea pig atria and papillary muscle procedure: right atrial force. Conditions: Cavia porcellus, read-out: % Change from Control RAF. Type of assay: cell-based.
Description: as §1, §2

Another assay has as its system anesthetized dog. The assay is described as follows: anesthetized dog procedure: cardiac contractile force. In kind it is in vivo. The conditions noted are these: administered intravenously. On the procedure:
as §1
When tested by said anesthetized dog procedure, the said cardiotonically active compounds of formulas I and II at doses of from about 0.030 to 3.0 mg/kg administered intravenously are found to cause significant increases, that is, 25% or greater, in cardiac contractile force or cardiac contractility with lower changes in heart rate and blood pressure. Representative examples of the invention were tested by this procedure and found to cause increases in contractile force as follows: […]

As for `Cc1ncn(-c2nccc3[nH]c(=O)ccc23)n1` [Example 41, 5-(3-methyl-lH-1,2,4-triazole-1-yl)-1,6-naphthyridin-2(1H)-one], in the assay with papillary muscle, the activation at 1 µg/mL amounted to 36%, the activation at 3 µg/mL turned out to be 56% and the activation at 10 µg/mL was 124%. Further, in the assay with guinea pig atria, the activation at 1 µg/mL was determined as 29%, the activation at 3 µg/mL is 37% and the activation at 10 µg/mL is 67%.
Take `Cc1cn(-c2nc(C)cc3[nH]c(=O)ccc23)cn1` [Example 47, 7-Methyl-5-(4-methyl-1H-imidazol-1-yl)-1,6-naphthyridin-2(lH)-one]: the “% Increase In Contractile Force” value with anesthetized dog (dose 0.100 mg/kg) stood at 71%; with anesthetized dog (dose 0.300 mg/kg), 125%; in the assay on anesthetized dog (dose 1.00 mg/kg), 183%. In addition, the activation at 1 µg/mL in the assay on papillary muscle turned out to be 46%; in the assay with guinea pig atria, 37%. Besides, the activation at 3 µg/mL is 48% in the assay with papillary muscle and 46% with guinea pig atria. The activation at 10 µg/mL is 164% with papillary muscle and 158% in the assay with guinea pig atria.
For `Cc1ncn(-c2nccc3[nH]c(=O)ccc23)c1C` [Example 12, 5-(4,5-dimethyl-1H-imidazol-1-yl)-1,6-naphthyridin-2(1H)-one], the “% Increase In Contractile Force” value in the assay on anesthetized dog (dose 1.00 mg/kg) was 54%. Moreover, the “% Increase In Contractile Force” value in the assay on anesthetized dog (dose 3.00 mg/kg) is 136%. In the assay on papillary muscle, the activation at 3 µg/mL was found to be 13%, the activation at 10 µg/mL is 49% and the activation at 30 µg/mL was determined as 92%. For the same compound, in the assay with guinea pig atria, the activation at 3 µg/mL came out at 7%, the activation at 10 µg/mL came to 14% and the activation at 30 µg/mL came to 50%.
Consider `O=c1ccc2c(-n3cnc([N+](=O)[O-])c3)nccc2[nH]1` [Example 48, 5-(4-nitro-1H-imidazol-1-yl)-1,6-naphthyridin-2(1H)-one], for which, in the assay with papillary muscle, the activation at 10 µg/mL was 37%, the activation at 30 µg/mL is 71% and the activation at 100 µg/mL came out at 107%. In addition, in the assay on guinea pig atria, the activation at 10 µg/mL turned out to be 18%, the activation at 30 µg/mL amounted to 42% and the activation at 100 µg/mL is 170%.
With `O=c1ccc2c(-n3cnc(CO)c3)nccc2[nH]1` [Example 42, 5-[4-(Hydroxymethyl)-1H-imidazol-1-yl]-1,6-naphthyridin-2(lH)-one], in the assay on papillary muscle, the activation at 1 µg/mL was 9%, the activation at 3 µg/mL worked out at 48% and the activation at 10 µg/mL was found to be 112%. In addition, in the assay on guinea pig atria, the activation at 1 µg/mL was -2%, the activation at 3 µg/mL was determined as 8% and the activation at 10 µg/mL amounted to 37%.
As to `O=c1ccc2c(-n3cnc(Br)c3)nccc2[nH]1` [Example 43, 5-(4-Bromo-1H-imidazol-1-yl)-1,6-naphthyridin-2(lH)-one], in the assay with papillary muscle, the activation at 1 µg/mL worked out at 47%, the activation at 3 µg/mL is 71% and the activation at 10 µg/mL stood at 128%. Besides, in the assay with guinea pig atria, the activation at 1 µg/mL amounted to 35%, the activation at 3 µg/mL worked out at 43% and the activation at 10 µg/mL came to 56%.
For `O=c1ccc2c(-n3cccn3)nccc2[nH]1` [Example 10, 5-(1H-pyrazol-1-yl)-1,6-naphthyridin-2(1H)-one], in the assay with papillary muscle, the activation at 10 µg/mL stood at 43%, the activation at 30 µg/mL is 121% and the activation at 100 µg/mL was 203%. Moreover, in the assay with guinea pig atria, the activation at 10 µg/mL was determined as 38%, the activation at 30 µg/mL was 102% and the activation at 100 µg/mL turned out to be 168%.
With `Cc1nccn1-c1nccc2[nH]c(=O)ccc12` [Example 8, 5-(2-Methyl-1H-imidazol-1-yl)-1,6-naphthyridin-2(lH)-one], in the assay with papillary muscle, the activation at 10 µg/mL turned out to be 34%, the activation at 30 µg/mL was determined as 69% and the activation at 100 µg/mL was determined as 100%. Moreover, in the assay with guinea pig atria, the activation at 10 µg/mL was 39%, the activation at 30 µg/mL was determined as 117% and the activation at 100 µg/mL was determined as 221%.
Take `O=c1ccc2c(Br)nccc2[nH]1` [Example 4, 5-bromo-1,6-naphthyridin-2(1H)-one]: the “% Increase In Contractile Force” value in the assay on anesthetized dog (dose 0.100 mg/kg) was determined as 135%. Besides, in the assay with papillary muscle, the activation at 3 µg/mL was 73%, the activation at 10 µg/mL came to 85% and the activation at 30 µg/mL amounted to 110%. For the same compound, in the assay on guinea pig atria, the activation at 3 µg/mL was determined as 57%, the activation at 10 µg/mL is 49% and the activation at 30 µg/mL amounted to 134%.
On to `Cc1ccn(-c2nccc3[nH]c(=O)ccc23)n1` [Example 40, 5-(3-Methyl-1H-pyrazol-1-yl)-1,6-naphthyridin-2(lH)-one], for which, in the assay with papillary muscle, the activation at 3 µg/mL was 24%, the activation at 10 µg/mL was 64% and the activation at 30 µg/mL was found to be 97%. In the assay with guinea pig atria, the activation at 3 µg/mL amounted to 26%, the activation at 10 µg/mL came to 89% and the activation at 30 µg/mL came to 84%.
As for `Cc1cn(-c2nccc3[nH]c(=O)ccc23)cn1` [Example 7, 5-(4-Methyl-1H-imidazol-1-yl)-1,6-naphthyridin-2(1H)-one], the “% Increase In Contractile Force” value in the assay on anesthetized dog (dose 0.030 mg/kg) was 34%; in the assay with anesthetized dog (dose 0.100 mg/kg) it was 96%; in the assay with anesthetized dog (dose 0.300 mg/kg) it was 124%. The activation at 0.3 µg/mL with papillary muscle (dose 0.3 µg/ml) stood at 53%; in the assay with guinea pig atria (dose 0.3 µg/ml), 28%. Besides, the results for the activation at 1 µg/mL with papillary muscle and in the assay on guinea pig atria were 66% and 49%, respectively. The results for the activation at 3 µg/mL in the assay with papillary muscle and with guinea pig atria were 87% and 88%, respectively.
As for `O=c1ccc2c(-n3cncn3)nccc2[nH]1` [Example 11, 5-(lH-1,2,4-triazol-1-yl)-1,6-naphthyridin-2(1H)-one], in the assay with papillary muscle, the activation at 3 µg/mL worked out at 51%, the activation at 10 µg/mL amounted to 76% and the activation at 30 µg/mL stood at 108%. For the same compound, in the assay on guinea pig atria, the activation at 3 µg/mL was 28%, the activation at 10 µg/mL turned out to be 31% and the activation at 30 µg/mL is 140%.
With `O=c1ccc2c(-n3ccnc3)nccc2[nH]1` [Example 6, 5-(lH-imidazol-1-yl)-1,6-naphthyridin-2(lH)-one], in the assay with papillary muscle, the activation at 3 µg/mL turned out to be 55%, the activation at 10 µg/mL was 90% and the activation at 30 µg/mL stood at 96%. Also, in the assay with guinea pig atria, the activation at 3 µg/mL was 70%, the activation at 10 µg/mL was found to be 68% and the activation at 30 µg/mL is 142%.
Regarding `O=c1ccc2c(-n3cnc(-c4ccccc4)c3)nccc2[nH]1` [Example 13, 5-(4-phenyl-lH-imidazol-1-yl)-1,6-naphthyridin-2(1H)-one], the “% Increase In Contractile Force” value in the assay on anesthetized dog (dose 1.00 mg/kg) was 40%. The “% Increase In Contractile Force” value in the assay on anesthetized dog (dose 3.00 mg/kg) was 87%. Besides, in the assay on papillary muscle, the activation at 10 µg/mL worked out at 25%, the activation at 30 µg/mL turned out to be 34% and the activation at 100 µg/mL came to 36%. Further, in the assay with guinea pig atria, the activation at 10 µg/mL is 33%, the activation at 30 µg/mL came out at 24% and the activation at 100 µg/mL was 1%.
Turning to `Cc1cc2[nH]c(=O)ccc2c(Br)n1` [Example 46, 5-Bromo-7-methyl-1,6-naphthyridin-2(1H)-one], in the assay with papillary muscle, the activation at 1 µg/mL amounted to 44%, the activation at 3 µg/mL stood at 67% and the activation at 10 µg/mL is 114%. In the assay on guinea pig atria, the activation at 1 µg/mL stood at 41%, the activation at 3 µg/mL came out at 92% and the activation at 10 µg/mL amounted to 59%.
`O=c1ccc2c(-n3cnc(C(F)(F)F)c3)nccc2[nH]1` [Example 44, 5-[(4-(Trifluoromethyl)-lH-imidazol-1-yl)]-1,6-naphthyridin-2(lH)-one]: in the assay with papillary muscle, the activation at 10 µg/mL came out at 30%, the activation at 30 µg/mL was found to be 31% and the activation at 100 µg/mL was 69%. Also, in the assay with guinea pig atria, the activation at 10 µg/mL was determined as 35%, the activation at 30 µg/mL was found to be 36% and the activation at 100 µg/mL stood at 101%.
On to `Cc1ncc([N+](=O)[O-])n1-c1nccc2[nH]c(=O)ccc12` [Example 9, 5-(2-methyl-5-nitro-1H-imidazol-1-yl)-1,6-naphthyridin-2(1H)-one], for which, in the assay with papillary muscle, the activation at 10 µg/mL amounted to 24%, the activation at 30 µg/mL is 43% and the activation at 100 µg/mL is 103%. Further, in the assay on guinea pig atria, the activation at 10 µg/mL worked out at 15%, the activation at 30 µg/mL amounted to 16% and the activation at 100 µg/mL came to 116%.
